This is an account of results in ChEMBL document CHEMBL1795250, “Synthesis and base-pairing properties of C-nucleotides having 1-substituted 1H-1,2,3-triazoles” (Bioorg Med Chem Lett, 2009).

Type in all cases: nucleic-acid assay
For experiment [1], the system named is Nucleic Acid. Briefly: Stabilization of 5'-AGAGAGACAGAAAAA-3' ssDNA sequence assessed as melting temperature at pH7 using 100 mM NaCl.
Experiment [2] deals with Nucleic Acid. Nature of the experiment: Stabilization of 5'-AGAGAGAAAGAAAAA-3' ssDNA sequence assessed as melting temperature at pH7 using 100 mM NaCl.
The subject of experiment [3] is Nucleic Acid. Nature of the experiment: Stabilization of 5'-AGAGAGAGAGAAAAA-3' ssDNA sequence assessed as melting temperature at pH7 using 100 mM NaCl.
Experiment [4] concerns Nucleic Acid. Nature of the experiment: Stabilization of 5'-AGAGAGATAGAAAAA-3' ssDNA sequence assessed as melting temperature at pH7 using 100 mM NaCl.

Turning to `Cc1cn([C@H]2C[C@H](OP(=O)(O)OC[C@H]3O[C@@H](n4cc(C)c(=O)[nH]c4=O)C[C@@H]3OP(=O)(O)OC[C@H]3O[C@@H](n4cc(C)c(N)nc4=O)C[C@@H]3OP(=O)(O)OC[C@H]3O[C@@H](n4cc(C)c(=O)[nH]c4=O)C[C@@H]3OP(=O)(O)OC[C@H]3O[C@@H](n4cc(C)c(N)nc4=O)C[C@@H]3OP(=O)(O)OC[C@H]3O[C@@H](n4cc(C)c(=O)[nH]c4=O)C[C@@H]3O)[C@@H](COP(=O)(O)O[C@H]3C[C@H](n4cc(C)c(=O)[nH]c4=O)O[C@@H]3COP(=O)(O)O[C@H]3C[C@H](c4cn(C5CCCCC5)nn4)O[C@@H]3COP(=O)(O)O[C@H]3C[C@H](n4cc(C)c(=O)[nH]c4=O)O[C@@H]3COP(=O)(O)O[C@H]3C[C@H](n4cc(C)c(N)nc4=O)O[C@@H]3COP(=O)(O)O[C@H]3C[C@H](n4cc(C)c(=O)[nH]c4=O)O[C@@H]3COP(=O)(O)O[C@H]3C[C@H](n4cc(C)c(=O)[nH]c4=O)O[C@@H]3COP(=O)(O)O[C@H]3C[C@H](n4cc(C)c(=O)[nH]c4=O)O[C@@H]3COP(=O)(O)O[C@H]3C[C@H](n4cc(C)c(=O)[nH]c4=O)O[C@@H]3COP(=O)(O)O[C@H]3C[C@H](n4cc(C)c(=O)[nH]c4=O)O[C@@H]3CO)O2)c(=O)nc1N`, the Tm in the experiment on Nucleic Acid [1] was found to be 34 °C; with Nucleic Acid [2] it was 34 °C; in the experiment with Nucleic Acid [3], 37 °C; in the experiment with Nucleic Acid [4], 33 °C.
On to `Cc1cn([C@H]2C[C@H](OP(=O)(O)OC[C@H]3O[C@@H](n4cc(C)c(=O)[nH]c4=O)C[C@@H]3OP(=O)(O)OC[C@H]3O[C@@H](n4cc(C)c(N)nc4=O)C[C@@H]3OP(=O)(O)OC[C@H]3O[C@@H](n4cc(C)c(=O)[nH]c4=O)C[C@@H]3OP(=O)(O)OC[C@H]3O[C@@H](n4cc(C)c(N)nc4=O)C[C@@H]3OP(=O)(O)OC[C@H]3O[C@@H](n4cc(C)c(=O)[nH]c4=O)C[C@@H]3O)[C@@H](COP(=O)(O)O[C@H]3C[C@H](n4cc(C)c(=O)[nH]c4=O)O[C@@H]3COP(=O)(O)O[C@H]3C[C@H](c4cn(C56CC7CC(CC(C7)C5)C6)nn4)O[C@@H]3COP(=O)(O)O[C@H]3C[C@H](n4cc(C)c(=O)[nH]c4=O)O[C@@H]3COP(=O)(O)O[C@H]3C[C@H](n4cc(C)c(N)nc4=O)O[C@@H]3COP(=O)(O)O[C@H]3C[C@H](n4cc(C)c(=O)[nH]c4=O)O[C@@H]3COP(=O)(O)O[C@H]3C[C@H](n4cc(C)c(=O)[nH]c4=O)O[C@@H]3COP(=O)(O)O[C@H]3C[C@H](n4cc(C)c(=O)[nH]c4=O)O[C@@H]3COP(=O)(O)O[C@H]3C[C@H](n4cc(C)c(=O)[nH]c4=O)O[C@@H]3COP(=O)(O)O[C@H]3C[C@H](n4cc(C)c(=O)[nH]c4=O)O[C@@H]3CO)O2)c(=O)nc1N`, for which the Tm came to 34 °C in the experiment with Nucleic Acid [1], 30 °C in the experiment with Nucleic Acid [2], 37 °C with Nucleic Acid [3] and 34 °C in the experiment on Nucleic Acid [4].
Take `C#C[C@H]1C[C@H](OP(=O)(O)OC[C@H]2O[C@@H](n3cc(C)c(=O)[nH]c3=O)C[C@@H]2OP(=O)(O)OC[C@H]2O[C@@H](n3cc(C)c(N)nc3=O)C[C@@H]2OP(=O)(O)OC[C@H]2O[C@@H](n3cc(C)c(=O)[nH]c3=O)C[C@@H]2OP(=O)(O)OC[C@H]2O[C@@H](n3cc(C)c(N)nc3=O)C[C@@H]2OP(=O)(O)OC[C@H]2O[C@@H](n3cc(C)c(=O)[nH]c3=O)C[C@@H]2OP(=O)(O)OC[C@H]2O[C@@H](n3cc(C)c(N)nc3=O)C[C@@H]2OP(=O)(O)OC[C@H]2O[C@@H](n3cc(C)c(=O)[nH]c3=O)C[C@@H]2O)[C@@H](COP(=O)(O)O[C@H]2C[C@H](n3cc(C)c(=O)[nH]c3=O)O[C@@H]2COP(=O)(O)O[C@H]2C[C@H](n3cc(C)c(N)nc3=O)O[C@@H]2COP(=O)(O)O[C@H]2C[C@H](n3cc(C)c(=O)[nH]c3=O)O[C@@H]2COP(=O)(O)O[C@H]2C[C@H](n3cc(C)c(=O)[nH]c3=O)O[C@@H]2COP(=O)(O)O[C@H]2C[C@H](n3cc(C)c(=O)[nH]c3=O)O[C@@H]2COP(=O)(O)O[C@H]2C[C@H](n3cc(C)c(=O)[nH]c3=O)O[C@@H]2COP(=O)(O)O[C@H]2C[C@H](n3cc(C)c(=O)[nH]c3=O)O[C@@H]2CO)O1`: the Tm in the experiment on Nucleic Acid [1] amounted to 29 °C; with Nucleic Acid [2], 32 °C; in the experiment on Nucleic Acid [3] it was 32 °C; with Nucleic Acid [4], 31 °C.
In the case of `Cc1ccc(-n2cc([C@H]3C[C@H](OP(=O)(O)OC[C@H]4O[C@@H](n5cc(C)c(=O)[nH]c5=O)C[C@@H]4OP(=O)(O)OC[C@H]4O[C@@H](n5cc(C)c(N)nc5=O)C[C@@H]4OP(=O)(O)OC[C@H]4O[C@@H](n5cc(C)c(=O)[nH]c5=O)C[C@@H]4OP(=O)(O)OC[C@H]4O[C@@H](n5cc(C)c(N)nc5=O)C[C@@H]4OP(=O)(O)OC[C@H]4O[C@@H](n5cc(C)c(=O)[nH]c5=O)C[C@@H]4OP(=O)(O)OC[C@H]4O[C@@H](n5cc(C)c(N)nc5=O)C[C@@H]4OP(=O)(O)OC[C@H]4O[C@@H](n5cc(C)c(=O)[nH]c5=O)C[C@@H]4O)[C@@H](COP(=O)(O)O[C@H]4C[C@H](n5cc(C)c(=O)[nH]c5=O)O[C@@H]4COP(=O)(O)O[C@H]4C[C@H](n5cc(C)c(N)nc5=O)O[C@@H]4COP(=O)(O)O[C@H]4C[C@H](n5cc(C)c(=O)[nH]c5=O)O[C@@H]4COP(=O)(O)O[C@H]4C[C@H](n5cc(C)c(=O)[nH]c5=O)O[C@@H]4COP(=O)(O)O[C@H]4C[C@H](n5cc(C)c(=O)[nH]c5=O)O[C@@H]4COP(=O)(O)O[C@H]4C[C@H](n5cc(C)c(=O)[nH]c5=O)O[C@@H]4COP(=O)(O)O[C@H]4C[C@H](n5cc(C)c(=O)[nH]c5=O)O[C@@H]4CO)O3)nn2)cc1`, the Tm in the experiment with Nucleic Acid [1] was 36 °C; in the experiment with Nucleic Acid [2], 39 °C; in the experiment on Nucleic Acid [3], 42 °C; in the experiment with Nucleic Acid [4] it was 38 °C.
As for `Cc1cn([C@H]2C[C@H](OP(=O)(O)OC[C@H]3O[C@@H](n4cc(C)c(=O)[nH]c4=O)C[C@@H]3OP(=O)(O)OC[C@H]3O[C@@H](n4cc(C)c(N)nc4=O)C[C@@H]3OP(=O)(O)OC[C@H]3O[C@@H](n4cc(C)c(=O)[nH]c4=O)C[C@@H]3OP(=O)(O)OC[C@H]3O[C@@H](n4cc(C)c(N)nc4=O)C[C@@H]3OP(=O)(O)OC[C@H]3O[C@@H](n4cc(C)c(=O)[nH]c4=O)C[C@@H]3O)[C@@H](COP(=O)(O)O[C@H]3C[C@H](n4cc(C)c(=O)[nH]c4=O)O[C@@H]3COP(=O)(O)O[C@H]3C[C@H](c4cn(Cc5ccccc5)nn4)O[C@@H]3COP(=O)(O)O[C@H]3C[C@H](n4cc(C)c(=O)[nH]c4=O)O[C@@H]3COP(=O)(O)O[C@H]3C[C@H](n4cc(C)c(N)nc4=O)O[C@@H]3COP(=O)(O)O[C@H]3C[C@H](n4cc(C)c(=O)[nH]c4=O)O[C@@H]3COP(=O)(O)O[C@H]3C[C@H](n4cc(C)c(=O)[nH]c4=O)O[C@@H]3COP(=O)(O)O[C@H]3C[C@H](n4cc(C)c(=O)[nH]c4=O)O[C@@H]3COP(=O)(O)O[C@H]3C[C@H](n4cc(C)c(=O)[nH]c4=O)O[C@@H]3COP(=O)(O)O[C@H]3C[C@H](n4cc(C)c(=O)[nH]c4=O)O[C@@H]3CO)O2)c(=O)nc1N`, the Tm is 34 °C in the experiment with Nucleic Acid [1], 32 °C in the experiment on Nucleic Acid [2], 38 °C in the experiment on Nucleic Acid [3] and 33 °C with Nucleic Acid [4].
In the case of `Cc1cn([C@H]2C[C@H](OP(=O)(O)OC[C@H]3O[C@@H](n4cc(C)c(=O)[nH]c4=O)C[C@@H]3OP(=O)(O)OC[C@H]3O[C@@H](n4cc(C)c(N)nc4=O)C[C@@H]3OP(=O)(O)OC[C@H]3O[C@@H](n4cc(C)c(=O)[nH]c4=O)C[C@@H]3OP(=O)(O)OC[C@H]3O[C@@H](n4cc(C)c(N)nc4=O)C[C@@H]3OP(=O)(O)OC[C@H]3O[C@@H](n4cc(C)c(=O)[nH]c4=O)C[C@@H]3O)[C@@H](COP(=O)(O)O[C@H]3C[C@H](n4cc(C)c(=O)[nH]c4=O)O[C@@H]3COP(=O)(O)O[C@H]3C[C@H](c4cn(CSc5ccccc5)nn4)O[C@@H]3COP(=O)(O)O[C@H]3C[C@H](n4cc(C)c(=O)[nH]c4=O)O[C@@H]3COP(=O)(O)O[C@H]3C[C@H](n4cc(C)c(N)nc4=O)O[C@@H]3COP(=O)(O)O[C@H]3C[C@H](n4cc(C)c(=O)[nH]c4=O)O[C@@H]3COP(=O)(O)O[C@H]3C[C@H](n4cc(C)c(=O)[nH]c4=O)O[C@@H]3COP(=O)(O)O[C@H]3C[C@H](n4cc(C)c(=O)[nH]c4=O)O[C@@H]3COP(=O)(O)O[C@H]3C[C@H](n4cc(C)c(=O)[nH]c4=O)O[C@@H]3COP(=O)(O)O[C@H]3C[C@H](n4cc(C)c(=O)[nH]c4=O)O[C@@H]3CO)O2)c(=O)nc1N`, the Tm is 38 °C in the experiment with Nucleic Acid [1], 37 °C in the experiment on Nucleic Acid [2], 40 °C in the experiment with Nucleic Acid [3] and 40 °C in the experiment with Nucleic Acid [4].
Regarding `Cc1cn([C@H]2C[C@H](OP(=O)(O)OC[C@H]3O[C@@H](n4cc(C)c(=O)[nH]c4=O)C[C@@H]3OP(=O)(O)OC[C@H]3O[C@@H](n4cc(C)c(N)nc4=O)C[C@@H]3OP(=O)(O)OC[C@H]3O[C@@H](n4cc(C)c(=O)[nH]c4=O)C[C@@H]3OP(=O)(O)OC[C@H]3O[C@@H](n4cc(C)c(N)nc4=O)C[C@@H]3OP(=O)(O)OC[C@H]3O[C@@H](n4cc(C)c(=O)[nH]c4=O)C[C@@H]3O)[C@@H](COP(=O)(O)O[C@H]3C[C@H](n4cc(C)c(=O)[nH]c4=O)O[C@@H]3COP(=O)(O)O[C@H]3C[C@H](c4cn(CCCCCCCCCCO)nn4)O[C@@H]3COP(=O)(O)O[C@H]3C[C@H](n4cc(C)c(=O)[nH]c4=O)O[C@@H]3COP(=O)(O)O[C@H]3C[C@H](n4cc(C)c(N)nc4=O)O[C@@H]3COP(=O)(O)O[C@H]3C[C@H](n4cc(C)c(=O)[nH]c4=O)O[C@@H]3COP(=O)(O)O[C@H]3C[C@H](n4cc(C)c(=O)[nH]c4=O)O[C@@H]3COP(=O)(O)O[C@H]3C[C@H](n4cc(C)c(=O)[nH]c4=O)O[C@@H]3COP(=O)(O)O[C@H]3C[C@H](n4cc(C)c(=O)[nH]c4=O)O[C@@H]3COP(=O)(O)O[C@H]3C[C@H](n4cc(C)c(=O)[nH]c4=O)O[C@@H]3CO)O2)c(=O)nc1N`, the Tm worked out at 39 °C in the experiment with Nucleic Acid [1], 35 °C in the experiment on Nucleic Acid [2], 39 °C in the experiment on Nucleic Acid [3] and 39 °C with Nucleic Acid [4].
